# Experimental data published in patent US20230053540A1, “TREATMENT OF LIVER INJURY” (Massachusetts Institute of Technology, priority 2019, published 2023).
# System: hepatocytes
# Assay: Seq-Well scRNA-Seq of hepatocytes after APAP overdose (signature scores, DEG vs untreated)
# Type: in vivo, mouse
# Settings: cluster A6; DEG between treatment (APAP and PH)
compound,measurement,value
"CC(=O)Nc1ccc(O)cc1 [APAP, acetaminophen]",avg_logFC Hspb8,0.6089
same,avg_logFC Ifrd1,0.4765
same,avg_logFC Igfbp1,1.09
same,avg_logFC Iigp1,0.6431
same,avg_logFC Il1r1,1.189
same,avg_logFC Insig2,0.6081
same,avg_logFC Itih2,0.3927
same,avg_logFC Itih3,0.4042
same,avg_logFC Jak1,0.5437
same,avg_logFC Jmjd1c,0.5963
same,avg_logFC Kif5b,0.4522
same,avg_logFC Klf6,0.7067
same,avg_logFC Krt8,1.273
same,avg_logFC Krt18,1.227
same,avg_logFC Lars2,0.8143
same,avg_logFC Lcn2,0.3876
same,avg_logFC Lmo4,0.2962
same,avg_logFC Lpin2,0.5165
same,avg_logFC Lrg1,0.3324
same,avg_logFC Lrrc58,0.9396
same,avg_logFC Lrrfip1,0.4108
same,avg_logFC Lyst,0.3717
same,avg_logFC Mak16,0.2897
same,avg_logFC Malat1,0.9854
same,avg_logFC Map2k3,0.415
same,avg_logFC Map3k5,0.3131
same,avg_logFC Mat1a,0.3889
same,avg_logFC Mat2a,0.4758
same,avg_logFC Mcl1,0.5249
same,avg_logFC Mdn1,0.3079
same,avg_logFC Mfsd2a,0.461
same,avg_logFC Mmp14,0.2571
same,avg_logFC Mpeg1,0.4668
same,avg_logFC Mrap,0.8615
same,avg_logFC Mt1,2.32
same,avg_logFC Mt2,2.038
same,avg_logFC Mybbp1a,0.4018
same,avg_logFC Myh9,1.025
same,avg_logFC Myl12a,0.4029
same,avg_logFC Myo1e,0.5786
same,avg_logFC Nars,0.3687
same,avg_logFC Ncl,0.3882
same,avg_logFC Neat1,0.6554
same,avg_logFC Nedd4l,0.2635
same,avg_logFC Nolc1,0.4445
same,avg_logFC Nop58,0.6343
same,avg_logFC Pfkfb2,0.2694
same,avg_logFC Phc2,0.299
same,avg_logFC Picalm,0.6766
same,avg_logFC Plec,0.4188
same,avg_logFC Plin2,1.454
same,avg_logFC Plk3,0.4158
same,avg_logFC Plscr1,0.4497
same,avg_logFC Ppan,0.2767
same,avg_logFC Ppl,0.8618
same,avg_logFC Prrc2c,0.3906
same,avg_logFC Ptp4a1,0.2517
same,avg_logFC Ptpn1,0.3865
same,avg_logFC Ptpn2,0.271
same,avg_logFC Ptpn12,0.3093
same,avg_logFC Pxk,0.2652
same,avg_logFC Rad54l2,0.3642
same,avg_logFC Ranbp2,0.5074
same,avg_logFC Rcan1,0.701
same,avg_logFC Rell1,0.5793
same,avg_logFC Retsat,0.2918
same,avg_logFC Rnd3,0.3267
same,avg_logFC Rock2,0.5552
same,avg_logFC Rora,0.541
same,avg_logFC S100a8,1.127
same,avg_logFC S100a9,1.342
same,avg_logFC Sat1,0.6887
same,avg_logFC Sdad1,0.2969
same,avg_logFC Sdc4,0.5673
same,avg_logFC Sds,0.3515
same,avg_logFC Serpina3m,0.7932
same,avg_logFC Serpina3n,0.6641
same,avg_logFC Slc10a2,0.2704
same,avg_logFC Slc16a6,0.914
same,avg_logFC Slc20a1,0.326
same,avg_logFC Slc39a14,0.9161
same,avg_logFC Smg1,0.3045
same,avg_logFC Son,0.4555
same,avg_logFC Spred1,0.352
same,avg_logFC Sqstm1,0.6992
same,avg_logFC Srgn,0.9289
same,avg_logFC Srxn1,1.864
same,avg_logFC St3gal1,0.517
same,avg_logFC St3gal5,0.4358
same,avg_logFC Stat3,0.652
same,avg_logFC Stk40,0.493
same,avg_logFC Stom,0.3
same,avg_logFC Tacc2,0.3128
same,avg_logFC Tars,0.4718
same,avg_logFC Tatdn2,0.3248
same,avg_logFC Tbc1d15,0.4322
same,avg_logFC Tcerg1,0.3468
same,avg_logFC Tiparp,0.5248
same,avg_logFC Tjp2,0.3961
same,avg_logFC Tm4sf4,0.4006
same,avg_logFC Tmem87b,0.4054
